Measurements: patent publication US9856278B2, “Lysophosphatidylserine derivative” (THE UNIVERSITY OF TOKYO, priority 2014, dated 2018)
Structures can show the parent of a compound that is named as a salt.

Key:
[1] = target: T1, mouse P2Y10 (Mus musculus, UniProt Q8BFU7); test: TGFα cleavage assay, agonistic activity against P2Y10; assay type: cell-based; conditions: for P2Y10/LPS2 agonistic activity: HEK293 cells transfected with AP labeled TGFα and mouse P2Y10, graded against EC50 of Reference Compound 1; for EC50: HEK293 cells, mouse P2Y10, AP-TGFα release, value in parentheses, read-out: P2Y10/LPS2 EC50; for selectivity for P2Y10: against GPR34 and GPR174, from Table 3
T1 construct: expressed in transfected cells; host or cells: HEK293 cells, transient transfection with pCAGGS vector (LipofectAMINE 2000)
Method: (§1) In a Dulbecco's modified Eagle's medium (DMEM) containing 10% bovine fetal calf serum (FCS), HEK293 cells were suspended to give a density of 2.0×10^5 cells/mL and seeded in 4 mL portions in 60 mm dishes. After 24-hr culture in the presence of 5% CO2, transfection with various expression vectors was performed using LipofectAMINE 2000 (Invitrogen). For each 60 mm dish, a plasmid vector for AP labeled TGFα was used in an amount of 1 μg and a pCAGGS plasmid vector for mouse GPR34, P2Y10 or GPR174 was also used in an amount of 1 μg. The plasmid vectors were provided by the methods disclosed in Patent Documents 2 and 5. It should be noted that the AP labeled TGFα is a protein having a human placental alkaline phosphatase fused to the N terminal of membrane-bound pro-TGFα, and a plasmid vector for the AP labeled TGFα can be prepared based on the disclosure of Tokumaru et al., J Cell Biol 151, 209-220 (2000). Twenty-four hours after transfection, cells were dissociated using trypsin/EDTA, resuspended in the culture broth to give a density of 2.0×10^4 cells/well, and seeded in a 96-well plate. In the case of stimulation with compounds, a Hank's balanced salt solution (HBSS, containing 5 mM HEPES) was used. After standing for 30 minutes, test compounds were added at varying concentrations, followed by standing for an additional one hour in the presence of 5% CO2. The 96-well plate was centrifuged (190×g, 3 min) and 80 μL of the supernatant was transferred to another 96-well plate. A reaction buffer (40 mM Tris-HCl (pH 9.5)) containing 10 mM p-nitrophenyl phosphate (p-NPP) was added in an amount of 80 μL to both the supernatant and the cells. After OD405 measurement with a microplate reader (background), heating was done at 37° C. for an hour and then another OD405 measurement was performed. For each well, the background was subtracted from the absorbance measured the second time and the result was fitted to the following formula to calculate AP activity.
(§2) Further, the values obtained by subtracting the AP activity (%) for the unstimulated group were plotted on the vertical axis to draw a graph. […] The EC50 values of the respective compounds are also cited in parentheses.

[2] = target: T2, mouse GPR34 (Mus musculus, UniProt Q9R1K6); test: TGFα cleavage assay, agonistic activity against GPR34; assay type: cell-based; conditions: HEK293 cells transfected with AP labeled TGFα and mouse GPR34; graded against EC50 of Reference Compound 1
T2 construct: expressed in transfected cells; host or cells: HEK293 cells, transient transfection with pCAGGS vector (LipofectAMINE 2000)
Method: as §1
Further, the values obtained by subtracting the AP activity (%) for the unstimulated group were plotted on the vertical axis to draw a graph.

[3] = target: T3, mouse GPR174 (Mus musculus, UniProt Q3U507); test: TGFα cleavage assay, agonistic activity against GPR174; assay type: cell-based; conditions: for GPR174/LPS3 agonistic activity: HEK293 cells transfected with AP labeled TGFα and mouse GPR174, graded against EC50 of Reference Compound 1; for EC50: HEK293 cells, mouse GPR174, AP-TGFα release, value in parentheses, read-out: GPR174/LPS3 EC50
T3 construct: expressed in transfected cells; host or cells: HEK293 cells, transient transfection with pCAGGS vector (LipofectAMINE 2000)
Method: as §1, §2

T1 sequence (Q8BFU7 whole entry): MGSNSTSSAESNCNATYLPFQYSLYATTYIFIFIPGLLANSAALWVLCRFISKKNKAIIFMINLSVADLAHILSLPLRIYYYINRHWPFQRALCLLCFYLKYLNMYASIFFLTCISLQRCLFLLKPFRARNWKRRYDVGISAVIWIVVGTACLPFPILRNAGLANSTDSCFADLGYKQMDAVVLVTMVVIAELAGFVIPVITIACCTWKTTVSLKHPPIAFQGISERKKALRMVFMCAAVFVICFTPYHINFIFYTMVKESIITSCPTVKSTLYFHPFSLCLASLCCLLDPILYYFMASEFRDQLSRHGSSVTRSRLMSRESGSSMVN
T2 sequence (Q9R1K6 whole entry): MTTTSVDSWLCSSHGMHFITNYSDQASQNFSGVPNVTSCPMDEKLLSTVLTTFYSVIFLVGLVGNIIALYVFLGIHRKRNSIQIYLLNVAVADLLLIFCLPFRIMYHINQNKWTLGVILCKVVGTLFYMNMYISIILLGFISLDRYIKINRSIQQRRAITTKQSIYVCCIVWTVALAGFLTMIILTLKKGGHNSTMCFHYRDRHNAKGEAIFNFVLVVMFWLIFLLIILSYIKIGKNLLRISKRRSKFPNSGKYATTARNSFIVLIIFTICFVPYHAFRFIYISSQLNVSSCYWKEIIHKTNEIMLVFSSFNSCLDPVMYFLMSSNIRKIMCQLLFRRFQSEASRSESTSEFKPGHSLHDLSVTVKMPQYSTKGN
T3 sequence (Q3U507 whole entry): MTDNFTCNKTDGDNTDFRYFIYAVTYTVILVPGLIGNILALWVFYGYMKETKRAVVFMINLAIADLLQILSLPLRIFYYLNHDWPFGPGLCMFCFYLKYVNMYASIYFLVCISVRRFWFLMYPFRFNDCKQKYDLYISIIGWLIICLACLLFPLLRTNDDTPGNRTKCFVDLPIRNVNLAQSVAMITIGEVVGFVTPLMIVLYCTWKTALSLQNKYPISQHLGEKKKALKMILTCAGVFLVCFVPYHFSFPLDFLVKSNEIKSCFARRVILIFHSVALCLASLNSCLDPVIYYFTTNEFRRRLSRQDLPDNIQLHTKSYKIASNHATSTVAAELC

| melting point [°C] | Structure (SMILES) | P2Y10/LPS2 agonistic activity [1] | EC50 [1] [nM] | selectivity for P2Y10 [1] | GPR34/LPS1 agonistic activity [2] | GPR174/LPS3 agonistic activity [3] | EC50 [3] [nM] |
| --- | --- | --- | --- | --- | --- | --- | --- |
| 117.5 to 120 | Cc1cccc(C)c1-c1cccc(COc2ccccc2CCC(=O)O)c1 [Example 36, 3-(2-((2′,6′-dimethyl[1,1′-biphenyl]-3-yl)methoxy)phenyl)propanoic acid] |  |  |  |  |  |  |
| 87.8 to 88.8 | O=C(O)CCc1ccccc1OCc1cccc(-c2ccccc2)c1 [Example 47, 3-(2-([1,1′-biphenyl]-3-ylmethoxy)phenyl)propanoic acid] |  |  |  |  |  |  |
| 90 to 91 | O=C(O)CCc1cccc(OCc2cccc(-c3ccccc3)c2)c1 [Example 48, 3-(3-([1,1′-biphenyl]-3-ylmethoxy)phenyl)propanoic acid] |  |  |  |  |  |  |
| 104.5 to 106 | Cc1ccc(Oc2cccc(COc3ccccc3CCC(=O)O)c2)cc1 [Example 33, 3-(2-((3-(p-tolyloxy)benzyl)oxy)phenyl)propanoic acid] |  |  |  |  |  |  |
| 111.1 to 112.5 | CC(C)(C)c1ccc(Oc2cccc(COc3ccccc3CCC(=O)O)c2)cc1 [Example 42, 3-(2-((3-(4-(tert-butyl)phenoxy)benzyl)oxy)phenyl)propanoic acid] |  |  |  |  |  |  |

The next lines start with the compound.

| Structure (SMILES) | melting point [°C] | P2Y10/LPS2 agonistic activity [1] | EC50 [1] [nM] | selectivity for P2Y10 [1] | GPR34/LPS1 agonistic activity [2] | GPR174/LPS3 agonistic activity [3] | EC50 [3] [nM] |
| --- | --- | --- | --- | --- | --- | --- | --- |
| CCCCCCCCCCCOc1ccccc1CCC(=O)OCC#CCOP(=O)(O)OC[C@H](N)C(=O)O [Example 12, O-(hydroxy((4-((3-(2-(undecyloxy)phenyl)propanoyl)oxy)but-2-yn-1-yl)oxy)phosphoryl)-L-serine] |  | ++++~+++++ | 1.5 | agonists having selectivity for P2Y10 | − | + |  |
| CCCCCCCC/C=C\CCCCCCCC(=O)OC[C@@H](O)COP(=O)(O)OC[C@H](N)C(=O)O [compound 1, reference compound] |  | +++ | 8.3 |  | +++ | +++ | 81 |
| CCCCCCCCCCCOc1ccccc1CCC(=O)OCc1cccc(OP(=O)(O)OC[C@H](N)C(=O)O)c1 [Example 6, O-(hydroxy(3-(((3-(2-(undecyloxy)phenyl)propanoyl)oxy)methyl)phenoxy)phosphoryl)-L-serine] |  | ++++ | 3.3 | agonists having selectivity for P2Y10 | −~++ | +~++ |  |
| CCCCCCCCCCCOc1ccccc1CCC(=O)Oc1cccc(COP(=O)(O)OC[C@H](N)C(=O)O)c1 [Example 9, O-(hydroxy((3-((3-(2-(undecyloxy)phenyl)propanoyl)oxy)benzyl)oxy)phosphoryl)-L-serine] |  | +++ | 30 | agonists having selectivity for P2Y10 | − | − |  |
| CCCCCCCCCCCOc1ccccc1CCC(=O)Oc1cccc(OP(=O)(O)OC[C@H](N)C(=O)O)c1 [Example 2, O-(hydroxy(3-((3-(2-(undecyloxy)phenyl)propanoyl)oxy)phenoxy)phosphoryl)-L-serine] |  | +++~++++ | 14 | agonists having selectivity for P2Y10 | − | − |  |
| CCCCCCCCCCCOc1ccccc1CCC(=O)OCc1ccc(OP(=O)(O)OC[C@H](N)C(=O)O)cc1 (as salt: TFA) | 184 to 193 |  |  |  |  |  |  |
| N[C@@H](COP(=O)(O)OCc1cccc(OC(=O)CCc2ccccc2OCc2cccc(Oc3ccccc3)c2)c1)C(=O)O [Example 10, O-(hydroxy((3-((3-(2-((3-phenoxybenzyl)oxy)phenyl)propanoyl)oxy)benzyl)oxy)phosphoryl)-L-serine] |  | ++ |  |  | −~+ | +~++ |  |
| N[C@@H](COP(=O)(O)Oc1cccc(COC(=O)CCc2ccccc2OCc2cccc(Oc3ccccc3)c2)c1)C(=O)O (as salt: TFA) [Example 7, O-(hydroxy(3-(((3-(2-((3-phenoxybenzyl)oxy)phenyl)propanoyl)oxy)methyl)phenoxy)phosphoryl)-L-serine] | 175 to 185 |  |  |  |  |  |  |
| CCCCCCCCCCCOc1ccccc1CCC(=O)Oc1ccc(OP(=O)(O)OC[C@H](N)C(=O)O)cc1 (as salt: salt) [Example 3, O-(hydroxy(4-((3-(2-(undecyloxy)phenyl)propanoyl)oxy)phenoxy)phosphoryl)-L-serine] | 140.5 to 142 |  |  |  |  |  |  |
| CCCCCCCCCCCOc1ccccc1CCC(=O)OCc1ccccc1OP(=O)(O)OC[C@H](N)C(=O)O [Example 4, O-(hydroxy(2-(((3-(2-(undecyloxy)phenyl)propanoyl)oxy)methyl)phenoxy)phosphoryl)-L-serine] |  | ++ |  |  | +++ | + |  |
| CCCCCCCCCCCOc1ccccc1CCC(=O)Oc1ccc(OP(=O)(O)OC[C@H](N)C(=O)O)cc1 [Example 3, O-(hydroxy(4-((3-(2-(undecyloxy)phenyl)propanoyl)oxy)phenoxy)phosphoryl)-L-serine] |  | +++~++++ | 7 | agonists having selectivity for P2Y10 | − | +~++ | 340 |
| N[C@@H](COP(=O)(O)Oc1cccc(COC(=O)CCc2ccccc2OCc2cccc(Oc3ccccc3)c2)c1)C(=O)O [Example 7, O-(hydroxy(3-(((3-(2-((3-phenoxybenzyl)oxy)phenyl)propanoyl)oxy)methyl)phenoxy)phosphoryl)-L-serine] |  | ++~+++ | 31 | agonists having selectivity for P2Y10 | − | −~+ |  |
| CCCCCCCCCCCOc1ccccc1CCC(=O)Oc1cccc(OP(=O)(O)OC[C@H](N)C(=O)O)c1 (as salt: salt) [Example 2, O-(hydroxy(3-((3-(2-(undecyloxy)phenyl)propanoyl)oxy)phenoxy)phosphoryl)-L-serine] | 123 to 126.5 |  |  |  |  |  |  |
